Test results as given in US20100099640A1, “TISSUE DEGENERATION PROTECTION” (priority 2007, published 2010).

How the values were obtained:
[1] = Body weight of DKO mice during the 12-week treatment period; assay type: in vivo, mouse; conditions: stevioside 10 mg/kg orally for 12 weeks (12 to 24 weeks of age); placebo 43%
Protocol: (§1) Homozygous LDL-receptor-knockout mice (LDLR^(−/−)), heterozygous ob/+, and C57BL6 mice were purchased from Jackson Laboratory, Bar Harbor, Me. LDLR^(−/−) mice were backcrossed into a C57BL6 background to the 10th generation. To obtain DKO mice with combined leptin deficiency (ob/ob) and LDL-receptor deficiency, LDLR^(−/−) and ob/+ mice were crossed. All offspring were genotyped by polymerase chain reaction (PCR) techniques. All mice were housed at 22° C. on a fixed 12/12-hour light/dark cycle. Experimental procedures in animals were performed in accordance with protocols approved by the Institutional Animal Care and Research Advisory Committee. All mice were fed standard chow containing 4% fat (Pavan Service). Food intake was ≈5.7 g/d. Mice (about 50 g) were treated with stevioside (N=14; 10 mg/kg), steviol (N=9; 5 mg/kg) or placebo (N=17) for 12 weeks between 12 and 24 weeks of age. Stevioside (Molecular weight: 804) was dissolved in water (1 mg/ml) and 500 μl of the solution was administered orally. Steviol (Molecular weight: 318) was dissolved in water containing 6% NaHCO3 (1 mg/ml) and 250 μl of the solution was administered orally.

[2] = test system: RNA expression in white visceral (intra-abdominal) adipose tissue; experiment: Real-time RT-PCR of RNA expression in white visceral adipose tissue of treated DKO mice; assay type: in vivo, mouse
Protocol: as §1
(§2) The level of RNA expression in extracts of white visceral (intra-abdominal) adipose tissue and aortic arch was measured by real-time reverse transcription (RT)-PCR. Total RNA was extracted with the Trizol reagent (InVitrogen) and purified on an RNeasy kit column (Qiagen). First-strand cDNA was generated from total RNA by RT using random primers from Takara and Superscript III reverse transcriptase (InVitrogen). Quantitative real-time PCR was performed using SybrGreen master mix according to the supplier protocols (Applied Biosystems).). Oligonucleotides (InVitrogen) used as forward primer (F) and reverse primer (R) were: for mouse PPARalpha: F: 5′-[…]-3′; R: 5′-[…]-3′; for mouse PPARgamma: F: 5′-[…]-3′; R: 5′-GTCAGCGGGTGGGACTTTC-3′; for mouse FABP4: F: 5′-AACTGGGCGTGGAATTCG-3′; R: 5′-[…]-3′; for mouse iNOS: F: 5′-[…]-3′; R: 5′-[…]-3′; for mouse GLUT-4: F: 5′-[…]-3′; R: 5′-[…]-3′; for mouse IRS-1: F: 5′-[…]-3′; R: 5′-CGCCTCGGGAAGAGACAGT-3′; for mouse IRS-2: F: 5′-[…]-3′: R: 5′-[…]-3′; for mouse LXRalpha: F: 5′-[…]-3′; R: 5′-[…]-3′; for mouse SOD1: F: 5′-[…]-3′; R: 5′-[…]-3′; for mouse SOD2: F: 5′-TCGGTGGCGTTGAGATTGT; R: 5′-[…]-3′; for mouse SOD3: F: 5′-[…]-3′; R: 5′-GCTGCCGGAAGAGAACCAA-3′; and for mouse β-actin (housekeeping gene), F: 5′-[…]-3′; R: 5′-[…]-3′. The level of mRNA expression was calculated using the threshold cycle (Ct) value, i.e., the number of PCR cycles at which the fluorescent signal during the PCR reaches a fixed threshold. For each sample, the Ct both for the gene of interest and for the housekeeping gene β-actin were determined to calculate ΔCt,sample (Ct,target gene−Ct,housekeeping gene), thus normalizing the data and correcting for differences in amount and/or quality between the different RNA samples. The expression levels were related to an external calibrator consisting of intra-abdominal adipose tissue from C57BL6 control mice. Subsequently, ΔΔCt (ΔCt,sample−ΔCt,calibrator) was determined, and the relative expression levels were calculated from 2^−ΔΔCt according to the manufacturer's instructions (Applied Biosystems). RNA expression levels are thus indicated as arbitrary units ±SD

[3] = test system: RNA expression in aortic arch; experiment: Real-time RT-PCR of RNA expression in aortic arch of treated DKO mice; assay type: in vivo, mouse
Protocol: as §1, §2

3T3-L1 adipocytes = experiment: Triglyceride (Oil red O) accumulation during differentiation of 3T3-L1 adipocytes; assay type: cell-based, mouse
Protocol: 3T3-L1 mouse preadipocytes were purchased from the American Type Culture Collection (ATCC). They are cultivated in DHG medium (Dulbecco's modified Eagle's medium+High Glucose 4.5 g/l, GibcoBRL) supplemented with 10% FCS (foetal calf serum, GibcoBRL) and incubated a 37 C+5% CO2 incubator in a humidified atmosphere. For pre-adipocyte differentiation, 3T3-L1 cells were seeded at 50% confluence 3 days before the beginning of the differentiation programme. Confluent cell monolayers (day 0) are switched for 48 h to media containing the adipogenic cocktail: “DHG-L1” medium (DHG that contains 1.5 g/l NaHCO3) supplemented with 10% FCS, 5 μg/ml insulin, 300 μM dibutyryl-cyclicAMP (dbcAMP) and 1 μM dexamethasone. The cells were then refeeded every other day with DHG-L1 containing 10% FCS and 5 μg/ml insulin. At the end, 80-90% of cells were differentiated. […]
To characterize the state of (de)differentiation obtained in the presence of the molecules of interest, triglycerides present in the cells were stained with Oil red O (a dye of the neutral lipids). The absorbance of cell monolayers at 490 nm was measured in a spectrophotometer.

[4] = test system: everted gastrointestinal sacs of rats and Caco-2 cell layers; conditions: everted gastrointestinal sacs of rats, Caco-2 cell layers; cited from earlier work
[5] = test system: mouse pancreatic islets, β-cell line INS-1; conditions: direct action on β-cells; cited from earlier work
anaesthetised dogs = conditions: 200 mg stevioside powder/kg peroral; cited from earlier work
diabetic rats = conditions: blood of diabetic rats; cited from earlier work
[6] = adipose tissue, stevioside 10 mg/kg orally, 12 weeks
[7] = adipose tissue, treatment with stevioside
[8] = aortic arch, stevioside 10 mg/kg orally, 12 weeks

C=C1C[C@@]23CC[C@H]4C(C)(CCC[C@@]4(C)C(=O)O[C@@H]4O[C@H](CO)C(O)[C@H](O)C4O)[C@@H]2CCC1(OC1O[C@H](CO)C(O)C(O)C1OC1O[C@H](CO)C(O)[C@H](O)C1O)C3 (stereo in doubt) [stevioside, Kaur-16-en-18-oic acid, 13-[(2-O-b-D-glucopyranosyl-b-D-glucopyranosyl)oxy]-, b-D-glucopyranosyl ester, (4a)-]
increase of weight during the treatment period [1]: 41% | LPL expression ([2]; adipose tissue of stevioside-treated mice): not associated with a change | expression of FABP-4 [2, 6]: increased expression | expression of GLUT-4 [2, 6]: increased expression | expression of IRS-1 [2, 6]: increased expression | expression of IRS-2 [2, 6]: increased expression | expression of LXRalpha [2, 6]: increased expression | expression of PPARalpha [2, 6]: increased expression | expression of PPARgamma [2, 6]: increased expression | expression of the antioxidant SOD3 [2, 6]: increased expression | expression of CD36 [2, 7]: increased expression | expression of catalase [2, 7]: increased expression | expression of the insulin receptor (INSR) [2, 7]: increased expression | eNOS ([3]; aorta of stevioside-treated mice): not affected | expression of IRS2 [3, 8]: increased expression | expression of PPARalpha [3, 8]: did not increase | expression of SOD1 [3, 8]: increased expression | expression of SOD2 [3, 8]: increased expression | expression of the inflammatory iNOS [3, 8]: decreased the expression | triglyceride accumulation in adipocytes (3T3-L1 adipocytes; 50-micromolar (lowest concentration), added during the 7-days differentiation process): did not significantly reduce | lipid deposition (triglyceride accumulation) in adipocytes (3T3-L1 adipocytes; 200-micromolar (4x higher concentration), added during differentiation, steviol dissolved with DMSO): inhibited | uptake by the intestinal tract [4]: extremely low | insulin secretion [5]: stimulation of insulin secretion | blood pressure (anaesthetised dogs): short-term blood pressure reduction | HDL-cholesterol (diabetic rats): increases | serum concentration of LDL cholesterol (diabetic rats): lowers | serum concentration of triglycerides (diabetic rats): lowers
